pIC50: −log10 of the molar value.

This note sets out measurements from patent publication US20100311714A1, “1H-IMIDAZO[4,5-c]QUINOLINONE COMPOUNDS” (priority 2009, published 2010).

In one experiment the target is T1, mTOR (Homo sapiens, UniProt P42345).
T1 construct: purchased Invitrogen Corporation (Carlsbad/Calif., USA) PV4753
Briefly: Biochemical assay for m-TOR by TR-FRET. As to conditions: read-out: EPK_mTOR/IC50. The gist of the method:
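mTOR (0.5 nM) phosphorylates GFP-4EBP1 (400 nM) with 8 μM ATP at rt in 50 mM HEPES pH 7.5, 10 mM MnCl2, 50 mM NaCl, 1 mM EGTA, 1 mM DTT; compounds 0.003–10 μM final. EDTA stop with Tb-anti-p4EBP1[pT46] antibody (0.5 nM); TR-FRET read after 15 min against no-enzyme and vehicle controls.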
(In general: In TR-FRET formats the signal depends on donor and acceptor labels being close together.)

Experiment [1] has as its system S6 Ribosomal Protein phosphorylation Ser235/236 in TSC1 null mouse embryo fibroblast (MEF) cells. In words: Reverse protein array, S6 Ribosomal Protein phosphorylation in TSC1 null MEF cells. It is filed as cell-based. As to conditions: 1 h, TSC1-/- MEFs, 60 minutes, read-out: p-S6 IC50. In outline:
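Phospho-S6 (Ser235/236) was quantified by reverse protein array of cell lysates with a phospho-specific primary antibody. […]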

T1 sequence (P42345 1360-2549 limits assumed): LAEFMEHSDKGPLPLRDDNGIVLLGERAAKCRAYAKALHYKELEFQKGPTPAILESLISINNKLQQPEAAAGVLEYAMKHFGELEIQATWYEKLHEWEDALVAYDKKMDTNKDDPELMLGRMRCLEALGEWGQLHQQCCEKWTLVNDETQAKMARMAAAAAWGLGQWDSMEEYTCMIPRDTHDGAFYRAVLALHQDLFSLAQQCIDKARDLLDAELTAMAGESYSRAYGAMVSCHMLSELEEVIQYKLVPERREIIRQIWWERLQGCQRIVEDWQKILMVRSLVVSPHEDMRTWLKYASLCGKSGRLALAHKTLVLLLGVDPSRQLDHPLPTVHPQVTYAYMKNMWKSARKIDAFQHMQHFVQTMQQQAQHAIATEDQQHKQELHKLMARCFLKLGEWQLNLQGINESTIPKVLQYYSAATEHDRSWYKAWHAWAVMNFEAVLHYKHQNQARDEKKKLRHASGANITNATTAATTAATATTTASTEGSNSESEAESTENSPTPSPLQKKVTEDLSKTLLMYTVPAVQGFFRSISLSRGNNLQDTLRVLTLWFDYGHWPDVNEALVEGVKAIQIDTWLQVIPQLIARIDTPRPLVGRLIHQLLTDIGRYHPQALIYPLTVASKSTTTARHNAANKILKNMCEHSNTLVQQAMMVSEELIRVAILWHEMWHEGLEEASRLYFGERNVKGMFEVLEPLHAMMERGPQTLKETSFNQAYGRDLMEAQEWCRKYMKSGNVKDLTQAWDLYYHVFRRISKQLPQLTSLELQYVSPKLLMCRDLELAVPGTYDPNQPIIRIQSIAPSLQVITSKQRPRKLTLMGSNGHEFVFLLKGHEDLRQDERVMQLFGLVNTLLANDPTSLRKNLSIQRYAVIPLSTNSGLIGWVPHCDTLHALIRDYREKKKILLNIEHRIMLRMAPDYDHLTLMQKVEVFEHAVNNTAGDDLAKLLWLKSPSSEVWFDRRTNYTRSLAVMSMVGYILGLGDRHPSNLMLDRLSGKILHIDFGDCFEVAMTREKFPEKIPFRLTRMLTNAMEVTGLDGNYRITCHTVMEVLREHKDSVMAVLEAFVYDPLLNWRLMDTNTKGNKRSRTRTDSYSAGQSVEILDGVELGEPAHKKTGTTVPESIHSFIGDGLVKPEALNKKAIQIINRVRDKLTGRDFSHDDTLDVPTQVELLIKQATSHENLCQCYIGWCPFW

Turning to `CNc1ccc(-c2ccc3ncc4c(c3c2)n(-c2ccc(N(C)CCOC)nc2C)c(=O)n4C)cn1` [Example 15.4, 1-{6-[(2-Methoxy-ethyl)-methyl-amino]-2-methyl-pyridin-3-yl}-3-methyl-8-(6-methylamino-pyridin-3-yl)-1,3-dihydro-imidazo[4,5-c]quinolin-2-one], the pIC50 at mTOR is 7.96; in experiment [1] it was 8.52.

As to `COCCN(C)c1ccc(-n2c(=O)n(C)c3cnc4ccc(-c5cnc(N(C)C)nc5)cc4c32)c(C)n1` [Example 15.5, 8-(2-Dimethylamino-pyrimidin-5-yl)-1-{6-[(2-methoxy-ethyl)-methyl-amino]-2-methyl-pyridin-3-yl}-3-methyl-1,3-dihydro-imidazo[4,5-c]quinolin-2-one], the pIC50 on mTOR is 7.15; in experiment [1], 7.72.

Take `CCNc1cc(-c2ccc3ncc4c(c3c2)n(-c2ccc(N(C)CCOC)nc2C)c(=O)n4C)cnc1C` [Example 15.6, 8-(5-Ethylamino-6-methyl-pyridin-3-yl)-1-{6-[(2-methoxy-ethyl)-methyl-amino]-2-methyl-pyridin-3-yl}-3-methyl-1,3-dihydro-imidazo[4,5-c]quinolin-2-one]: the pIC50 at mTOR is 8.22; in experiment [1], 8.52.

On to `COCCN(C)c1ccc(-n2c(=O)n(C)c3cnc4ccc(-c5cnc6c(ccn6C)c5)cc4c32)c(C)n1` [Example 15.7, 1-{6-[(2-Methoxy-ethyl)-methyl-amino]-2-methyl-pyridin-3-yl}-3-methyl-8-(1-methyl-1H-pyrrolo[2,3-b]pyridin-5-yl)-1,3-dihydro-imidazo[4,5-c]quinolin-2-one], for which the pIC50 at mTOR is 7.12; in experiment [1] it was 8.70.

Take `COCCN(C)c1ccc(-n2c(=O)n(C)c3cnc4ccc(-c5cncc(N)c5)cc4c32)c(C)n1` [Example 15.8, 8-(5-Amino-pyridin-3-yl)-1-{6-[(2-methoxy-ethyl)-methyl-amino]-2-methyl-pyridin-3-yl}-3-methyl-1,3-dihydro-imidazo[4,5-c]quinolin-2-one]: the results for the pIC50 (on mTOR; in experiment [1]) were 7.96 and 8.22, respectively.

On to `Cc1cc(F)ncc1-n1c(=O)n(C)c2cnc3ccc(-c4cnc(N)c(C(F)(F)F)c4)cc3c21` [Example 16.1, 8-(6-Amino-5-trifluoromethyl-pyridin-3-yl)-1-(6-fluoro-4-methyl-pyridin-3-yl)-3-methyl-1,3-dihydro-imidazo[4,5-c]quinolin-2-one], for which the pIC50 on mTOR is 6.96; in experiment [1] it was over 9.34.

For `CCNc1cc(-c2ccc3ncc4c(c3c2)n(-c2cnc(F)cc2C)c(=O)n4C)cnc1C` [Example 16.2, 8-(5-Ethylamino-6-methyl-pyridin-3-yl)-1-(6-fluoro-4-methyl-pyridin-3-yl)-3-methyl-1,3-dihydro-imidazo[4,5-c]quinolin-2-one], the pIC50 on mTOR is 7.28; in experiment [1], 8.22.

Consider `CNc1ncc(-c2ccc3ncc4c(c3c2)n(-c2cnc(F)cc2C)c(=O)n4C)cn1` [Example 16.3, 1-(6-Fluoro-4-methyl-pyridin-3-yl)-3-methyl-8-(2-methylamino-pyrimidin-5-yl)-1,3-dihydro-imidazo[4,5-c]quinolin-2-one], for which the pIC50 was 6.82 on mTOR and 7.66 in experiment [1].

On to `CNc1ccc(-c2ccc3ncc4c(c3c2)n(-c2cnc(F)cc2C)c(=O)n4C)cn1` [Example 16.4, 1-(6-Fluoro-4-methyl-pyridin-3-yl)-3-methyl-8-(6-methylamino-pyridin-3-yl)-1,3-dihydro-imidazo[4,5-c]quinolin-2-one], for which the pIC50 was 6.15 on mTOR and 8.30 in experiment [1].

In the case of `Cc1cc(F)ncc1-n1c(=O)n(C)c2cnc3ccc(-c4cnc5c(ccn5C)c4)cc3c21` [Example 16.5, 1-(6-Fluoro-4-methyl-pyridin-3-yl)-3-methyl-8-(1-methyl-1H-pyrrolo[2,3-b]pyridin-5-yl)-1,3-dihydro-imidazo[4,5-c]quinolin-2-one], the pIC50 is 6.21 at mTOR and 7.90 in experiment [1].

As to `CCOc1ccc(-c2ccc3ncc4c(c3c2)n(-c2cncc(C)c2)c(=O)n4C)cn1` [Example 17.1, 8-(6-Ethoxy-pyridin-3-yl)-3-methyl-1-(5-methyl-pyridin-3-yl)-1,3-dihydro-imidazo[4,5-c]quinolin-2-one], the pIC50 on mTOR was 6.32; in experiment [1] it was 7.54.

Turning to `CCNc1cc(-c2ccc3ncc4c(c3c2)n(-c2ccc(OC)nc2Cl)c(=O)n4C)cnc1C` [Example 18.1, 1-(2-Chloro-6-methoxy-pyridin-3-yl)-8-(5-ethylamino-6-methyl-pyridin-3-yl)-3-methyl-1,3-dihydro-imidazo[4,5-c]quinolin-2-one], the pIC50 on mTOR was 7.89; in experiment [1] it was over 9.34.

For the compound `COc1ccc(-n2c(=O)n(C)c3cnc4ccc(-c5cnc(N(C)C)nc5)cc4c32)c(Cl)n1` [Example 18.3, 1-(2-Chloro-6-methoxy-pyridin-3-yl)-8-(2-dimethylamino-pyrimidin-5-yl)-3-methyl-1,3-dihydro-imidazo[4,5-c]quinolin-2-one], the pIC50 is 6.67 at mTOR and 8.37 in experiment [1].

`CNc1cc(-c2ccc3ncc4c(c3c2)n(-c2ccc(N(C)C)nc2C)c(=O)n4C)cnc1C` [Example 19.2, 1-(6-Dimethylamino-2-methyl-pyridin-3-yl)-3-methyl-8-(6-methyl-5-methylamino-pyridin-3-yl)-1,3-dihydro-imidazo[4,5-c]quinolin-2-one]: the results for the pIC50 (at mTOR; in experiment [1]) were 8.05 and 8.96, respectively.

`COCC(=O)Nc1ccc(-n2c(=O)n(C)c3cnc4ccc(-c5cncc(N)c5)cc4c32)c(C)n1` [Example 20.1, N-{5-[8-(5-Amino-pyridin-3-yl)-3-methyl-2-oxo-2,3-dihydro-imidazo[4,5-c]quinolin-1-yl]-6-methyl-pyridin-2-yl}-2-methoxy-acetamide]: the figures for the pIC50 (at mTOR; in experiment [1]) were 8.15 and 7.49, respectively.

As to `CCOc1ccc(-c2ccc3ncc4c(c3c2)n(-c2ccc(NC(=O)COC)nc2C)c(=O)n4C)cn1` [Example 20.2, N-{5-[8-(6-Ethoxy-pyridin-3-yl)-3-methyl-2-oxo-2,3-dihydro-imidazo[4,5-c]quinolin-1-yl]-6-methyl-pyridin-2-yl}-2-methoxy-acetamide], the values for the pIC50 (at mTOR; in experiment [1]) were 6.81 and 6.88, respectively.

With `CNc1ncc(-c2ccc3ncc4c(c3c2)n(-c2ccc(NC(=O)COC)nc2C)c(=O)n4C)cn1` [Example 20.3, 2-Methoxy-N-{6-methyl-5-[3-methyl-8-(2-methylamino-pyrimidin-5-yl)-2-oxo-2,3-dihydro-imidazo[4,5-c]quinolin-1-yl]-pyridin-2-yl}-acetamide], the pIC50 on mTOR was 7.23; in experiment [1] it was 7.36.

As to `CNc1ccc(-c2ccc3ncc4c(c3c2)n(-c2ccc(NC(=O)COC)nc2C)c(=O)n4C)cn1` [Example 20.4, 2-Methoxy-N-{6-methyl-5-[3-methyl-8-(6-methylamino-pyridin-3-yl)-2-oxo-2,3-dihydro-imidazo[4,5-c]quinolin-1-yl]-pyridin-2-yl}-acetamide], the values for the pIC50 (on mTOR; in experiment [1]) were 7.96 and 7.20, respectively.

As for `COCCOc1ccc(-n2c(=O)n(C)c3cnc4ccc(-c5cncc(N6CCC6)c5)cc4c32)c(C)n1` [Example 22.2, 8-(5-Azetidin-1-yl-pyridin-3-yl)-1-[6-(2-methoxy-ethoxy)-2-methyl-pyridin-3-yl]-3-methyl-1,3-dihydro-imidazo[4,5-c]quinolin-2-one], the pIC50 on mTOR is 7.68; in experiment [1], 8.70.

For the compound `COCCOc1ccc(-n2c(=O)n(C)c3cnc4ccc(-c5cnc(COC)c(OC)c5)cc4c32)c(C)n1` [Example 22.3, 1-[6-(2-Methoxy-ethoxy)-2-methyl-pyridin-3-yl]-8-(5-methoxy-6-methoxymethyl-pyridin-3-yl)-3-methyl-1,3-dihydro-imidazo[4,5-c]quinolin-2-one], the pIC50 at mTOR is 6.85; in experiment [1], 7.82.

Turning to `Cc1nc(N2CC(F)(F)C2)ccc1-n1c(=O)n(C)c2cnc3ccc(-c4cncc(C(C)(C)O)c4)cc3c21` [Example 24.2, 1-[6-(3,3-Difluoro-azetidin-1-yl)-2-methyl-pyridin-3-yl]-8-[5-(1-hydroxy-1-methyl-ethyl)-pyridin-3-yl]-3-methyl-1,3-dihydro-imidazo[4,5-c]quinolin-2-one], the pIC50 at mTOR was 7.32; in experiment [1], 9.00.

On to `CCNc1cc(-c2ccc3ncc4c(c3c2)n(-c2ccc(N3CC(F)(F)C3)nc2C)c(=O)n4C)cnc1CO` [Example 24.3, 1-[6-(3,3-Difluoro-azetidin-1-yl)-2-methyl-pyridin-3-yl]-8-(5-ethylamino-6-hydroxymethyl-pyridin-3-yl)-3-methyl-1,3-dihydro-imidazo[4,5-c]quinolin-2-one], for which the pIC50 on mTOR is over 8.52; in experiment [1], over 9.34.

For the compound `CNc1ccc(-c2ccc3ncc4c(c3c2)n(-c2ccc(N3CCCC3)nc2C)c(=O)n4C)cn1` [Example 25.1, 3-Methyl-8-(6-methylamino-pyridin-3-yl)-1-(2-methyl-6-pyrrolidin-1-yl-pyridin-3-yl)-1,3-dihydro-imidazo[4,5-c]quinolin-2-one], the pIC50 is 7.47 at mTOR and 9.00 in experiment [1].

Consider `Cc1nc(N2CCC(O)C2)ccc1-n1c(=O)n(C)c2cnc3ccc(-c4cncc(OC(C)C)c4)cc3c21` (stereo not drawn) [Example 27.1, 1-[6-(3-Hydroxy-pyrrolidin-1-yl)-2-methyl-pyridin-3-yl]-8-(5-isopropoxy-pyridin-3-yl)-3-methyl-1,3-dihydro-imidazo[4,5-c]quinolin-2-one], for which the pIC50 was 7.60 at mTOR and 8.70 in experiment [1].
